Assay results reported in patent publication US20220107317A1, “COMPOSITIONS AND METHODS FOR DIAGNOSING AND TREATING CORONAVIRUS DISEASE 2019” (priority 2020, published 2022).

Target: SARS-CoV-2 spike protein RBD (Severe acute respiratory syndrome coronavirus 2, UniProt P0DTC2)
Settings: spike protein RBD and dimer of spike protein RBD, FIG. 4

## DLSGFVRPDPVIISSPLSTFFSDAGYKSLLKITMTQSTVPLNLIRVHLMVAVEG HLFQKSFQASPNLAYTFIWDKTDAYGQRVYGLSDAVVSVGFEYETCPSLILW EKRTALLQGFELD [T2 peptide]
  binding in Western blot: binding between T2 peptide to both spike protein RBD and the dimer of spike protein RBD
